In patent publication US20040253267A1 (priority 2003, published 2004):
Read-outs that look alike come from different tables or passages of the source.

Key:
[1] = tested on: breast cancer cell line MA782/5S-B; conditions: 31st day from tumor inoculation, 30 consecutive days treatment; AY/NY 0.3 ml oral once per day, CTX 30 mg/kg/day s.c.
Procedure: (§1) The biological composition comprising 10^8 cells per ml of activated and conditioned yeast cells of the strain Saccharomyces carlsbergensis Hansen strain AS2.441 was prepared by the methods described in Section 5.1 and subsections therein.
(§2) The animals used to generate the breast cancer cells for the experiments were female mice derived from an outbreed line of mouse (obtainable from the Chinese Academy of Military Medical Sciences, Beijing, China), having an average body weight of about 18 to 20 gram. About […] viable tumor cells of the breast cancer cell line MA782/5S-B (obtainable from the Cancer Institute, Chinese Academy of Medical Sciences, Beijing, China) in about 0.2 ml culture suspension were injected subcutaneously into the animals.
The mice injected with tumor cells were immediately divided into 4 experimental groups of ten mice per group and one control group. The four experimental groups were triplicated (i.e., using a total of 120 mice in the experimental groups).
The mice received the biological compositions, untreated yeast cells, CTX or saline on the same day as the tumor cells were transplanted. The mice in group CK2 also started receiving saline on the same day as the other four groups. […] The weight of the mice and the weight of the tumor were determined by standard techniques.

[2] = tested on: breast cancer cell line MA782/5S-B; conditions: for Number of live animals remaining in the groups after 30 days of treatment: 30 mice per group
Procedure: as §2
The survival time of mice after tumor injection and treatment was studied.
as §1
The animals were prepared in a similar manner as described in Section 8.1.
The mice injected with tumor cells were immediately divided into 4 experimental groups of ten mice per group and one control group. The four experimental groups were triplicated (i.e., using a total of 120 mice in the experimental groups). In group 2AY, the mice received 0.5 ml of the biological composition once per day. In group 2NY, the mice received 0.5 ml of the untreated yeast cells once per day. In group 2CTX, the mice were injected subcutaneously with 45 mg of cyclophosphamide (CTX) per kg body weight per day. In group 2CK1, the mice received 0.5 ml of physiological saline once per day.
The mice received the biological compositions, untreated yeast cells, CTX or saline on the same day as the tumor cells were transplanted. The mice in group 2CK2 also started receiving saline on the same day as the other four groups. The biological compositions, untreated yeast cells and saline were administered orally by a feeding tube and the CTX by subcutaneous injection for 30 consecutive days. The mice were observed over 6 months from the day of tumor inoculation and survival was recorded. The weight of the mice and the weight of the tumor were determined by standard techniques.

[3] = tested on: breast cancer cell line Ca615-B; test: Tumor growth in 615 strain mouse model of human breast cancer (Example 6); type: in vivo; conditions: 31st day from tumor inoculation, 30 consecutive days treatment; AY/NY 0.3 ml oral once per day, TSPA 1.5 mg/kg/day i.v.
Procedure: In group TSPA, the mice were injected intravenously with 1.5 mg of thiotepa (TSPA) per kg body weight per day.

[4] = tested on: breast cancer cell line Ca615-B; test: Survival time in 615 strain mouse model of human breast cancer (Example 7); type: in vivo; conditions: for Number of live animals remaining in the groups after 30 days of treatment: 30 mice per group
Procedure: In group 2TSPA, the mice were injected intravenously with 2.5 mg of thiotepa (TSPA) per kg body weight per day.

[5] = mice that survived, observed over 6 months, 2AY/2NY 0.5 ml oral once per day, 2TSPA 2.5 mg/kg/day i.v., 30 days
[6] = mice that survived, observed over 6 months, 2AY/2NY 0.5 ml oral once per day, 2CTX 45 mg/kg/day s.c., 30 days

O=P1(N(CCCl)CCCl)NCCCO1 (stereo not drawn) [CTX, cyclophosphamide]
mean weight of mice and standard deviation [1]: 19.4 ± 2.2 g | mean weight of tumor nodules and standard deviation [1]: 3.1 ± 1.7 g | Number of live animals remaining in the groups after 30 days of treatment ([2]; 0 month after cessation of treatment, 2AY/2NY 0.5 ml oral once per day, 2CTX 45 mg/kg/day s.c.): 30 | Number of live animals remaining in the groups after 30 days of treatment ([2]; 1 month after cessation of treatment, 2AY/2NY 0.5 ml oral once per day, 2CTX 45 mg/kg/day s.c.): 30 | Number of live animals remaining in the groups after 30 days of treatment ([2]; 2 months after cessation of treatment, 2AY/2NY 0.5 ml oral once per day, 2CTX 45 mg/kg/day s.c.): 17 | Number of live animals remaining in the groups after 30 days of treatment ([2]; 3 months after cessation of treatment, 2AY/2NY 0.5 ml oral once per day, 2CTX 45 mg/kg/day s.c.): 0 | Number of live animals remaining in the groups after 30 days of treatment ([2]; 4 months after cessation of treatment, 2AY/2NY 0.5 ml oral once per day, 2CTX 45 mg/kg/day s.c.): 0 | Number of live animals remaining in the groups after 30 days of treatment ([2]; 5 months after cessation of treatment, 2AY/2NY 0.5 ml oral once per day, 2CTX 45 mg/kg/day s.c.): 0 | Number of live animals remaining in the groups after 30 days of treatment ([2]; 6 months after cessation of treatment, 2AY/2NY 0.5 ml oral once per day, 2CTX 45 mg/kg/day s.c.): 0 | survival outcome (in words) ([2]; observed over 6 months, 2NY 0.5 ml per day, 2CTX 45 mg/kg/day): all died during the experiment

S=P(N1CC1)(N1CC1)N1CC1 [TSPA, thiotepa]
mean weight of mice and standard deviation [3]: 20 ± 2.4 g | mean weight of tumor nodules and standard deviation [3]: 3.1 ± 1.6 mg | Number of live animals remaining in the groups after 30 days of treatment ([4]; 0 month after cessation of treatment, 2AY/2NY 0.5 ml oral once per day, 2TSPA 2.5 mg/kg/day i.v.): 30 | Number of live animals remaining in the groups after 30 days of treatment ([4]; 1 month after cessation of treatment, 2AY/2NY 0.5 ml oral once per day, 2TSPA 2.5 mg/kg/day i.v.): 30 | Number of live animals remaining in the groups after 30 days of treatment ([4]; 2 months after cessation of treatment, 2AY/2NY 0.5 ml oral once per day, 2TSPA 2.5 mg/kg/day i.v.): 23 | Number of live animals remaining in the groups after 30 days of treatment ([4]; 3 months after cessation of treatment, 2AY/2NY 0.5 ml oral once per day, 2TSPA 2.5 mg/kg/day i.v.): 11 | Number of live animals remaining in the groups after 30 days of treatment ([4]; 4 months after cessation of treatment, 2AY/2NY 0.5 ml oral once per day, 2TSPA 2.5 mg/kg/day i.v.): 4 | Number of live animals remaining in the groups after 30 days of treatment ([4]; 5 months after cessation of treatment, 2AY/2NY 0.5 ml oral once per day, 2TSPA 2.5 mg/kg/day i.v.): 0 | Number of live animals remaining in the groups after 30 days of treatment ([4]; 6 months after cessation of treatment, 2AY/2NY 0.5 ml oral once per day, 2TSPA 2.5 mg/kg/day i.v.): 0 | mean weight of mice and standard deviation [4, 5]: all animals dead | mean weight of tumor nodules and standard deviation [4, 5]: all animals dead | survival outcome (in words) ([4]; observed over 6 months, 2AY/2NY 0.5 ml per day, 2TSPA 2.5 mg/kg/day): all died during the experiment | mean weight of mice and standard deviation [2, 6]: all animals dead | mean weight of tumor nodules and standard deviation [2, 6]: all animals dead
